Test results published in ChEMBL document CHEMBL4017513, “Structure-Activity Relationships of Potent, Targeted Covalent Inhibitors That Abolish Both the Transamidation and GTP Binding Activities of Human Tissue Transglutaminase” (J Med Chem, 2017).

Legend:
Homo sapiens = species: Homo sapiens; assay: Selectivity ratio of Kobs for human TG2 to Kobs for activated human TG3
[1] = Antimigratory activity in human ECS cells at 20 uM treated for 2 hrs measured after 30 hrs by DAPI staining-based inverted fluorescent microscopy relative vehicle-treated control; type: functional
[2] = biological target: T1, Protein-glutamine gamma-glutamyltransferase (Homo sapiens) (UniProt P21980); assay: Ratio of kinact to Ki for human TG2 by colorimetric assay
T1 sequence (whole entry): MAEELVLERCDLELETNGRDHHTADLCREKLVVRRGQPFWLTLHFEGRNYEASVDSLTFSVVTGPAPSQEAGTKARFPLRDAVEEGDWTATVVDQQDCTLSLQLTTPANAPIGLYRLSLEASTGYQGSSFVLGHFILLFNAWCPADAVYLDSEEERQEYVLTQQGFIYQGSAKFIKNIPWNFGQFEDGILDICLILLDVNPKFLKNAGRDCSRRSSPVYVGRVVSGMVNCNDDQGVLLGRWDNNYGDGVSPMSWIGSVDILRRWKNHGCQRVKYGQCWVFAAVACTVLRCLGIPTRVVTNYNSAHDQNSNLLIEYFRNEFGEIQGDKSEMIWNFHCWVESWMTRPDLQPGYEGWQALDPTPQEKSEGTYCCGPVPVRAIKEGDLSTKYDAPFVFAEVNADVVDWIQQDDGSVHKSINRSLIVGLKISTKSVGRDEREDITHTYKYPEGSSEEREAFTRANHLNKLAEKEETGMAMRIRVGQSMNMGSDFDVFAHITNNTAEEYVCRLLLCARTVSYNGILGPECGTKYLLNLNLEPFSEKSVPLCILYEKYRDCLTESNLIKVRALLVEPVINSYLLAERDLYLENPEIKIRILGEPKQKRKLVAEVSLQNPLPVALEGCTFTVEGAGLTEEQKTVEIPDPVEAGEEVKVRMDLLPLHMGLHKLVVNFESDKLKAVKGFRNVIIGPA

[3] = Inhibition of human ECS cells invasion by using Engelbreth-Holm-Swarm mouse tumor matrigel measured after 18 hrs by DAPI staining-based flourescence microscopy; type: functional, cell-based
[4] = biological target: T2, Protein-glutamine gamma-glutamyltransferase E (Homo sapiens) (UniProt Q08188); assay: Inactivation of activated human TG3 assessed as rate constant of enzyme inactivation using FRET- quenched A101 as substrate by fluorescence assay
T2 sequence (whole entry): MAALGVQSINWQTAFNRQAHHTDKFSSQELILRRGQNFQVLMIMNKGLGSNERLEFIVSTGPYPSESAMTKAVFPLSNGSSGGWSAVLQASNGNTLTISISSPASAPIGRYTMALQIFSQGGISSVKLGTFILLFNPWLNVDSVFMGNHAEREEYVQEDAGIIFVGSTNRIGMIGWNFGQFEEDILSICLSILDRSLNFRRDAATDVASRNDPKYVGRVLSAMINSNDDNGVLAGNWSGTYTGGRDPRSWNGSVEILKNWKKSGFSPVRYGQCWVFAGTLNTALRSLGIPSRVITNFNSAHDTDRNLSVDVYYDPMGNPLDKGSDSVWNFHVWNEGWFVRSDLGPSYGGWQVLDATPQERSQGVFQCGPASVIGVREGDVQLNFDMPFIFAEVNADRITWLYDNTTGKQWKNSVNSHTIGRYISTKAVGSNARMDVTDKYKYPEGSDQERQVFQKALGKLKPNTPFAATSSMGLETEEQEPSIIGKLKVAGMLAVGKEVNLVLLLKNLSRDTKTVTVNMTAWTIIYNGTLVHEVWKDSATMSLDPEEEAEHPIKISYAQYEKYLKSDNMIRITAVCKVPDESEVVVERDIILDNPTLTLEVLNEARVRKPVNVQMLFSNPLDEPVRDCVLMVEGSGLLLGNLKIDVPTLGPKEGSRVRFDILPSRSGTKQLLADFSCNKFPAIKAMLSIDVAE

[5] = Inhibition of guinea pig liver TG2 using Z-Gln-Gly/DMPDA as substrate preincubated for 3 mins followed by protein addition; parameters: species or system Cavia porcellus
Cavia porcellus = species: Cavia porcellus; assay: Ratio of Kinact to Ki for guinea pig liver TG2
[6] = biological target: T3, Protein-glutamine gamma-glutamyltransferase 6 (Homo sapiens) (UniProt O95932); assay: Inactivation of human TG6 using AL5 as substrate by colorimetric assay
T3 sequence (whole entry): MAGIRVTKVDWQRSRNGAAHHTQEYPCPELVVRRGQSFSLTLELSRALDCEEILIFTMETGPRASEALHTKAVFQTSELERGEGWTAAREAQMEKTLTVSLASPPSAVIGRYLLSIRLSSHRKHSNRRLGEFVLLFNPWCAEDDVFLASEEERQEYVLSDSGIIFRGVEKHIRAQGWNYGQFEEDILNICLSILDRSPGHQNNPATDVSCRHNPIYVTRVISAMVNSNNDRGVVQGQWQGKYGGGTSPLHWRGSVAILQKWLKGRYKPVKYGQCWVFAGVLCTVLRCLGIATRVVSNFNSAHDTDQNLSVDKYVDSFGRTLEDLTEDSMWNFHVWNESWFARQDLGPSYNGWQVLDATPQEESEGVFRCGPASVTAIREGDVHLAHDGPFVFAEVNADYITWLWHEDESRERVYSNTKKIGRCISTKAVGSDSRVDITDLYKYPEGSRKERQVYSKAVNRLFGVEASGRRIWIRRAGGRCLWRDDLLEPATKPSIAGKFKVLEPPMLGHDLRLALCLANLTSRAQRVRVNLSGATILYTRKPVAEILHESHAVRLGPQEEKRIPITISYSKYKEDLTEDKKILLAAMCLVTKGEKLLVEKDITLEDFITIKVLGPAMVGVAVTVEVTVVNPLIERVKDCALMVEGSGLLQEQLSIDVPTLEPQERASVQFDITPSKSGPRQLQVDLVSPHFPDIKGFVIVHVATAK

Selectivity ratio (Homo sapiens): 390 | Ratio [2]: 76.4 ×10³ /M/min | EC50 [3]: > 20 µM | K [4]: 1.01 ×10⁻³ /min | Ki [5]: 29 µM | Ratio (Cavia porcellus): 1.4 ×10⁴ /M/min | K [6]: 6.16 ×10⁻³ /min
Compound: C=CC(=O)NCCCC[C@H](NC(=O)OCc1ccccc1)C(=O)NCCOCCOCCNS(=O)(=O)c1cccc2c(N(C)C)cccc12
Activity [1]: 50%
